This is an account of results in patent publication US5556970A, “Lanolin fatty acids, a method for their fractionation, cosmetics and drugs for external use” (priority 1992, dated 1996).

Data set [1] in a line: interaction with water (water solubility). It counts as physicochemical. Particulars: 2 g in 100 ml distilled water. Here is the method:
For this test, 2 g of each sample was dissolved by heating in a beaker, 100 ml of distilled water at 70° C. was added and the mixture was stirred at the constant temperature of 70° C. for about 1 hour, after which it was allowed to cool and examined.

Data set [2] deals with atopic dermatitis, ichthyosis and age-associated wrinkles. Particulars: in vivo; cited from earlier work.

Molecules are shown by their SMILES.

Regarding `CCCCCCCCCCCCCCCCCC(=O)OCC(O)CO` (centres unmarked) [GLYMSA, Glycerol monostearate], the “Stability (in words)” value in data set [1] is on record as “Phase separation on standing”. Further, the “Condition of aqueous solution” value in data set [1] (70° C., 1 hour, cooled) is on record as “Emulsion”.
With `O=C(O)CC(O)(CC(=O)O)C(=O)O` [citric acid], in data set [2], the “effect in skin conditions” value was “effective in atopic dermatitis, ichthyosis and reduction of age-associated wrinkles”.
In the case of `CC(O)C(=O)O` (centres unmarked) [lactic acid], in data set [2], the “effect in skin conditions” value was “effective in atopic dermatitis, ichthyosis and reduction of age-associated wrinkles”.
As for `O=C(O)C(O)C(O)C(=O)O` (centres unmarked) [tartaric acid], in data set [2], the “effect in skin conditions” value was “effective in atopic dermatitis, ichthyosis and reduction of age-associated wrinkles”.
